pIC50: −log10 of the molar value. Read-outs that look alike come from different tables or passages of the source.
Columns and labels:
Type in all cases: cell-based
[1] = system: Human neutrophils; test: Neutrophil adhesion under static conditions; conditions: fMLP-stimulated adhesion to fibrinogen; method: 40 μM and 80 μM, concentration of the value not stated
Outline: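 Donor buffy-coat neutrophils (3×10^6/ml, PBS with Ca/Mg, 10% FCS, pH 7.2) preincubated 30 min at 37° C with 40 μM or 80 μM compound, then stimulated 1 min at 37° C with 1 nM fMLP on fibrinogen-coated glass. Adherent cells fixed and counted by computer; mean ± SD, unpaired t-test.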

[2] = system: IL-1beta; test: Cytokine release after LPS induction on human whole blood: IL-1β
Description: (§1) Aim of this in vitro method is to assess compounds effects on release of a panel of cytokines from whole blood following lipopolysaccharide (LPS) induced inflammatory reaction. Whole blood was incubated with compounds for 1 h prior to LPS induction. Cytokine levels in blood were measured using a multiplex FACS-based panel.
(§2) IC50 values determined for the tested compounds expressed in microM [μM] and the values for the inhibition of cytokines were listed for each compound.
(§3) Effect on cytokines release after LPS induction was performed on the compounds dissolved in DMSO or H2O to reach 10-fold concentrated stock solutions and dissolved in culture media.
(§4) Test system: Whole blood was removed from a single donor (into lithium heparin coated tubes; BD Vacutainer; 367886) and diluted 1:5 with RPMI 1640 (Thermo Fisher, 61870036). Within 30 minutes of sampling, blood was incubated with compounds for 1 h prior to LPS stimulation (O111:B4—Sigma L4391; 10 ng/ml final concentration). Stimulation continued under standard cell culture conditions (37° C. with 5% CO2) overnight (18 h), after which plates were centrifuged and supernatant removed and frozen at −80° C. until used for analyses.
(§5) Dilution of test compounds: 10×concentrated solutions (concerning to the final assay concentrations) of each test compound were prepared with the appropriate solvent (in DMSO or in water). These 10× compound solutions (10 μl) were then added to 90 μl pre-diluted whole blood (whole blood: RPMI1640, 1:5) resulting in the final assay concentration.
(§6) Test method: Diluted whole blood (80 μl) was pre-incubated with compounds (10 μl) to give final assay concentrations of 100, 30, 10, 3, 1, 0.3 and 0.1×10^−6M. Blood was incubated at 37° C. with 5% CO2 for 1 h. LPS was diluted in cell culture media to a concentration of […]; 10 μl was added to the whole blood to give a final concentration of 10 ng/ml. Plates were incubated at 37° C. for 18 h. Plates were centrifuged at 3,000 RPM for 5 minutes at 4° C. and supernatant removed and frozen at −80° C. until FACS analysis was carried out.
(§7) Cytokine release was measured using a custom multiplex system (ELISA Genie) according to manufacturers instructions. Prepared samples were run on an Attune NxT flow cytometer (Thermo Fisher).
(§8) Quantification of cytokine release inhibition: known concentration standards were run as part of the cytokine panel to allow quantification of each cytokine concentration in each sample. This was carried out using FCAP Array v3.0 software.
(§9) Results: The dose response relationship on cytokine release following LPS induction of inflammatory response in whole blood was assessed for all compounds. IC50 values were determined for each compound for a panel of cytokines (GM-CSF, IFN-gamma, IL-1beta, IL-2, IL-4, IL-5, IL-6, IL-8, IL-9, IL-10, IL-12p40, IL-13, IL-17A, IL-17F, IL-18, IL-21, IL-22, IL-33, TGF-beta, TNF-alpha, TNF-beta).

[3] = system: IL-2; test: Cytokine release after LPS induction on human whole blood: IL-2
Description: as §1, §2, §3, §4, §5, §6, §7, §8, §9

[4] = system: IL-6; test: Cytokine release after LPS induction on human whole blood: IL-6
Description: as §1, §2, §3, §4, §5, §6, §7, §8, §9

[5] = system: IL-9; test: Cytokine release after LPS induction on human whole blood: IL-9
Description: as §1, §2, §3, §4, §5, §6, §7, §8, §9

[6] = system: IL-12p70; test: Cytokine release after LPS induction on human whole blood: IL-12p70
[7] = system: IL-13; test: Cytokine release after LPS induction on human whole blood: IL-13
Description: as §1, §2, §3, §4, §5, §6, §7, §8, §9

[8] = system: IL-17A; test: Cytokine release after LPS induction on human whole blood: IL-17A
Description: as §1, §2, §3, §4, §5, §6, §7, §8, §9

[9] = system: IL-18; test: Cytokine release after LPS induction on human whole blood: IL-18
Description: as §1, §2, §3, §4, §5, §6, §7, §8, §9

[10] = system: IL-33; test: Cytokine release after LPS induction on human whole blood: IL-33
Description: as §1, §2, §3, §4, §5, §6, §7, §8, §9

[11] = system: TNF-beta; test: Cytokine release after LPS induction on human whole blood: TNFβ
Description: as §1, §2, §3, §4, §5, §6, §7, §8, §9

[12] = Homo sapiens, LPS 10 ng/ml, 18 h, read-out: Whole Blood: IL-1β IC50
[13] = human whole blood, inhibition of LPS induced inflammation, read-out: IC50 IL-1b
[14] = Homo sapiens, LPS 10 ng/ml, 18 h, read-out: Whole Blood: IL-2 IC50
[15] = human whole blood, inhibition of LPS induced inflammation, read-out: IC50 IL-2
[16] = Homo sapiens, LPS 10 ng/ml, 18 h, read-out: Whole Blood: IL-6 IC50
[17] = human whole blood, inhibition of LPS induced inflammation, read-out: IC50 IL-6
[18] = Homo sapiens, LPS 10 ng/ml, 18 h, read-out: Whole Blood: IL-9 IC50
[19] = human whole blood, inhibition of LPS induced inflammation, read-out: IC50 IL-9
[20] = Homo sapiens, LPS 10 ng/ml, 18 h, read-out: Whole Blood: IL-12p70 IC50
[21] = human whole blood, inhibition of LPS induced inflammation, read-out: IC50 IL-12p70
[22] = Homo sapiens, LPS 10 ng/ml, 18 h, read-out: Whole Blood: IL-13 IC50
[23] = human whole blood, inhibition of LPS induced inflammation, read-out: IC50 IL-13
[24] = Homo sapiens, LPS 10 ng/ml, 18 h, read-out: Whole Blood: IL-17A IC50
[25] = human whole blood, inhibition of LPS induced inflammation, read-out: IC50 IL-17A
[26] = Homo sapiens, LPS 10 ng/ml, 18 h, read-out: Whole Blood: IL-18 IC50
[27] = human whole blood, inhibition of LPS induced inflammation, read-out: IC50 IL-18
[28] = Homo sapiens, LPS 10 ng/ml, 18 h, read-out: Whole Blood: IL-33 IC50
[29] = human whole blood, inhibition of LPS induced inflammation, read-out: IC50 IL-33
[30] = Homo sapiens, LPS 10 ng/ml, 18 h, read-out: Whole Blood: TNF β IC50
[31] = human whole blood, inhibition of LPS induced inflammation, read-out: IC50 β

| SMILES | Neutrophil adhesion inhibition [1] | pIC50 [2, 12] | pIC50 [2, 13] | pIC50 [3, 14] | pIC50 [3, 15] | pIC50 [4, 16] | pIC50 [4, 17] | pIC50 [5, 18] | pIC50 [5, 19] | pIC50 [6, 20] | pIC50 [6, 21] | pIC50 [7, 22] | pIC50 [7, 23] | pIC50 [8, 24] | pIC50 [8, 25] | pIC50 [9, 26] | pIC50 [9, 27] | pIC50 [10, 28] | pIC50 [10, 29] | pIC50 [11, 30] | also measured |
| --- | --- | --- | --- | --- | --- | --- | --- | --- | --- | --- | --- | --- | --- | --- | --- | --- | --- | --- | --- | --- | --- |
| O=C(O)c1cc(NC(=O)c2cc(O)c(C(=O)O)cc2O)cc(NC(=O)c2cc(O)c(C(=O)O)cc2O)c1 [Ib-010a, 3,5-bis(2,5-dihydroxy-4-carboxybenzoylamino)benzoic acid] | 1.5% | 4.48 | 4.48 | 5.56 | 5.56 | 5.99 | 5.99 | 4.94 | 4.94 | 6.57 | 6.57 | < 4.00 | 4.00 | 6.38 | 6.38 | < 4.00 | 4.00 | 4.50 | 4.50 | 4.31 | pIC50 [11, 31]: 4.31 |
| CC(=O)N(Cc1cc(O)c(C(=O)O)cc1O)Cc1cc(O)c(C(=O)O)cc1O [IIIc-057a, N,N-Bis(4-carboxy-2,5-dihydroxyphenylmethyl)acetamide] | 40.04% | 4.79 | 4.79 | 4.62 | 4.62 | 6.72 | 6.72 | 4.95 | 4.95 | 6.14 | 6.14 | 5.33 | 5.33 | 5.88 | 5.88 | < 4.00 | 4.00 | 5.53 | 5.53 | 5.80 | pIC50 [11, 31]: 5.80 |
| O=C(Nc1ccccc1-c1nnn[nH]1)c1cc(O)c(C(=O)Nc2ccccc2-c2nnn[nH]2)cc1O [Ic-001aTz2, N1,N4-bis(2-(1H-tetrazol-5-yl)phenyl)-2,5-dihydroxyterephthalamide] | 97.15% | < 4.00 |  | 5.02 |  | 6.28 |  | 5.04 |  | 4.54 |  | 6.92 |  | 6.51 |  | 4.47 |  | 6.64 |  | 6.39 |  |
| O=C(O)c1cc(O)cc(CSCc2cc(O)cc(C(=O)O)c2O)c1O [IVc-058a, 3-((2,5-Dihydroxy-3-carboxyphenyl)methylthiomethyl)-2,5-dihydroxybenzoic acid] | 43.5% | 4.56 | 4.56 | 5.42 | 5.42 | 6.68 | 6.68 | 4.51 | 4.51 | 5.37 | 5.37 | 4.25 | 4.25 | 7.00 | 7.00 | < 4.00 | 4.00 | 4.47 | 4.47 | 4.23 | pIC50 [11, 31]: 4.23 |
| O=C(O)c1cc(O)c(C(=O)Nc2ccccc2C(=O)O)cc1O [Ia-001a, 4-(2-carboxyphenylaminocarbonyl)-2,5-dihydroxybenzoic acid] | 44.3% | 4.46 | 4.46 | 4.03 | 4.03 | 5.91 | 5.91 | 5.25 | 5.25 | 5.82 | 5.82 | 4.58 | 4.58 | 7.00 | 7.00 | < 4.00 | 4.00 | 4.71 | 4.71 | 4.88 | pIC50 [11, 31]: 4.88 |
| O=C(O)Cc1cc(O)c(C(=O)Nc2ccccc2-c2nnn[nH]2)cc1O [IIIa-001aTz] | 39.74% | < 4.00 | 4.00 | < 4.00 | 4.00 | 5.70 | 5.70 | 5.52 | 5.52 | 6.32 | 6.32 | 6.82 | 6.82 | 6.77 | 6.77 | 4.56 | 4.56 | 6.85 | 6.85 | 6.64 | pIC50 [11, 31]: 6.64 |
